Results from US10919941B2, “Functional lipid constructs” (KODE BIOTECH LIMITED, priority 2007, dated 2021).
Read-outs that look alike come from different tables or passages of the source.

Key:
RL95-2 monolayers [1] = test system: RL95-2 monolayers
RL95-2 cells = settings: for Mean Fluorescence: T = 24 hr, Serum-containing
RL95-2 monolayers [2] = test system: RL95-2 monolayers; remark: listed apart in the source
Description: The modification of monolayers of the cell line RL95-2 (established from a human endometrial adenocarcinoma (ATCC HTB CRL 1671)) in serum-free and serum-containing media was evaluated.
D-MEM/F12 (Gibco 11320-033, Invitrogen NZ) containing 1% penicillin/streptomycin (Gibco 15140-122, Invitrogen NZ) was used as a serum-free medium. D-MEM/F12 10% FBS (Gibco 10091-130, Invitrogen NZ) containing 1% penicillin/streptomycin and […] insulin (Gibco 12585-014, Invitrogen NZ) was used as a serum-containing medium.
A suspension of the cell line RL95-2 was diluted in pre-warmed serum-containing media to the required concentration e.g. 4×10^5 cells/mL. A 25 μL volume of the suspension was used to seed the required wells in a Terasaki tray so that each treatment was performed in duplicate. The plates were incubated overnight in a 5% CO2, 37° C. incubator until the monolayer was approximately 60% confluent.
Trays were incubated at 37° C., 5% CO2 for 120 min.
The cells were then washed and a 12 μl volume of a 0.1 mg/mL solution of Avidin Alexa Fluor® 488 added. The cells were then incubated at room temperature for a further 30 minutes in the dark.
The monolayers were finally washed 3 times with PBS, the trays inverted and photographed using an Olympus BX51 fluorescent microscope at 200× magnification, exposure time 475 ms (FIG. 12).

red blood cells = test: Avidin-Alexafluor fluorescence of RBCs modified with biotin-lipid construct; assay type: cell-based; set-up: key: 0 (no fluorescence observed); 4 (maximum fluorescence observed); settings: for fluorescence score (Avidin-AF), RBCs: Day 0
Description: A stock solution of Avidin-Alexafluor (Avidin-AF) was prepared in sterile phosphate buffered saline (PBS) at a concentration of 2 mg/mL. A stock solution of biotinylated gangliocide (BioG) was prepared in sterile PBS at a concentration of 5 mg/mL.
Incubations were performed in a plastic ependorf tube of nominal volume 1.5 mL for 2 hours at 37° C. in a water bath. O group RBCs were incubated with a solution of BioG at a concentration of 0.33 mg/mL as a positive control.
Incubated RBCs were washed 3 times with PBS in a mini centrifuge. Fluorescent labeling of the washed, modified RBCs was performed by adding 10 μL of a solution of Avidin-AF at a concentration of 0.1 mg/mL. The RBCs were then incubated in the dark for 1 hour at 37° C. in a water bath and washed 3 times with PBS.
85% solution of the washed, fluorescent labeled RBCs were viewed on a slide with cover slip under a fluorescent microscope at 488 nm and photographic exposure of 1.903 (FIG. 6). The intensity of the fluorescent signal was recorded using a scoring system of 0 (no fluorescence observed) to 4 (maximum fluorescence observed).
Retention of the construct by the RBCs was assessed by incubation with Avidin-AF as before.

A group red blood cells = settings: construct 1 mg/mL, 37° C. 2 hours; wells washed 3× with PBS
Description: A volume of 60 μL washed A group red blood cells (RBCs) was modified by incubation with 20 μL of the dilution of the construct at 37° C. for 2 hours.
The modified RBCs were washed twice in PBS and once in Celpresol™ as described above. A 2% cell suspension of washed cells (modified or control) was prepared in Celpresol™ and cell concentration (150×10^6/mL) determined using a haemocytometer. Similarly the concentration of a suspension streptavidin beads (134×10^6/mL) was determined.
A volume of 50 μL of a suspension of RBCs was added to provide a bead to RBC ratio of c. 1:1 and incubated at room temperature for 1 hour to allow RBCs to settle.
The wells were washed 3× with PBS, aspirating the washing solution with a pipette.

murine embryos = test: Avidin-Alexafluor fluorescence of murine embryos modified with biotin-lipid construct; assay type: cell-based
Description: Murine embryos (morula/early blastocyst stage, 3.5 day) were incubated in 50 microlitre microdrops in Blastassist™ culture media.
The zona pellucida of the embryos was removed by treatment with 0.5% pronase (4 minute incubation) and washing 3 times in embryo handling media prior to introduction into the microdrops. Each microdrop was equilibrated 5% CO2 at 37° C. overnight prior to introduction of the embryos.
Microdrops containing embryos and BioG were incubated for 40 minutes in 5% CO2 at 37° C.
Following incubation each group of embryos was washed 3 times in handling media and transferred to 50 microlitre microdrops containing 2 mg/ml, Avidin-AF microdrops for fluorescent labelling. The microdrops containing transferred embryos were incubated at 37° C. for 30 minutes in the dark.
Each group of embryos was then washed 3 times in handling media and mounted on a glass microscope slide for viewing. Embryos were viewed under a fluorescent microscope at 488 nm. The intensity of the fluorescence was recorded using a scoring system of 0 (no fluorescence) to 4 (maximum fluorescence).

group 0 RBCs = settings: construct 0.5 mg/ml
Description: Unmodified group A RBCs were used as a second population of cells.
Both populations of cells were incubated for 37° C. for 2 hrs in a water bath and then washed 2× in PBS and 1× in Celpresol using an Immufuge II (low, 1 min). The concentration of cells in each suspension was made up to 2% by adding 1.5 mL.
The suspensions of RBCs were mixed with avidinylated magnetic Dynabeads at an approximate ratio of RBC:bead of 1 and incubated for 10 min at room temperature on a gyrator. Samples of the first and second populations of RBCs were then mixed in equal volumes (35 μl each) in an ependorf tube for two minutes.
The contents of the ependorf were transferred to the well of a 96-well plate and a magnet was applied to the underside of the well for 1 minute. The supernatant was carefully removed with the magnet applied and without disruption of the beads. The blood grouping of the cells of the supernatants were then assessed by applying 30 μl of supernatant and 30 μl anti-A antibody to a Dynamed™ gel card. Cards were spun for 10 min in a centrifuge.

spermatozoa = test system: spermatozoa
Description: Spermatozoa were washed and isolated by layering 1.1 mL of fresh semen over a gradient of SpermGrad 125 (Vitrolife 10099; 2 mL of 40% solution over 2 mL of 80% solution in a 15 mL round bottom tube) and centrifuging at 500×g for 20 min.
The bottom layer of the gradient (c. 0.7 mL was transferred to 4 mL round bottom tubes and c. 2 mL flushing (handling) media (Medicult 10840125A) added. The tube was centrifuged at 300×g for 10 min and the spermatozoa washed two more times (mixing by tube inversion).
Samples of washed spermatozoa were incubated overnight at 37° C. in a 5% CO2 atmosphere.
Open tubes were incubated at 37° C. in a 5% CO2 atmosphere prior to addition of c. 70 μL spermatozoa (c. 25×10^6/mL) to each tube and incubation for 120 min (A), 60 min (B), 30 min (C), 10 min […] and 120 min (E).
Following incubation a couple of drops of flushing media were added and the tubes centrifuged at 300×g for 5 min. The spermatozoa were washed two more times with flushing media and before being re-suspended in culture media to a final volume of 100 μL.
Streptavidin beads at a concentration of c. 6.25×10^6/100 μL were diluted 35 times in BSA plus flushing media to provide a ratio of 0.1 beads/spermatozoa when mixed in equal volume with a diluted suspension of the modified spermatozoa.
A volume of 5 μL of a diluted suspension of the modified spermatozoa was mixed on a slide with 5 μL of a diluted suspension of streptavidin beads and covered with a coverslip.
The mixture was observed under a microscope at 400× magnification.
The assessment of the attachment of streptavidin beads to modified spermatozoa is recorded in Table 27.

Biotin-CMG(2)-Ad-DOPE
internalisation of Avidin Alexa Fluor 488 fluorescence (RL95-2 monolayers [1]; incubated at 4° C.): No internalization was observed
internalisation of Avidin Alexa Fluor 488 fluorescence (RL95-2 monolayers [1]; incubated at 37° C.): fluorescence starts to internalize within 4 hr
Mean Fluorescence (RL95-2 cells; 20 μg/mL): 0
Mean Fluorescence (RL95-2 cells; 100 μg/mL): 0
fluorescence 24 hr post-insertion, serum-free media (RL95-2 cells; RL95-2 cells, reduced from T=0): Fluorescence was detected
Mean Fluorescence (RL95-2 monolayers [2]; 100 μg/mL, insertion time 30): 3
fluorescence of RL95-2 cell membrane, serum-free media (RL95-2 monolayers [2]; construct 20, 100 and 500 μg/mL): homogenous intense fluorescent signal
fluorescence of RL95-2 cell membrane, serum-containing media (RL95-2 monolayers [2]; same concentrations (20, 100 and 500 μg/mL)): weakened fluorescence
intensity of fluorescence versus insertion time (RL95-2 monolayers [2]; serum-free media): increased with increasing insertion time
fluorescence score (Avidin-AF), RBCs (red blood cells; dilution 0.001 mg/ml): 0
fluorescence score (Avidin-AF), RBCs (red blood cells; dilution 0.01 mg/ml): 1
fluorescence score (Avidin-AF), RBCs (red blood cells; dilution 0.1 mg/ml): 2
fluorescence score (Avidin-AF), RBCs (red blood cells; dilution 1 mg/ml): 4
fluorescence score (Avidin-AF), RBCs, retention (red blood cells; dilution 1 mg/ml, Day 14 of storage): 4
retention of modified RBCs by streptavidin beads on magnet after washing (A group red blood cells): retained
fluorescence score (Avidin-AF), murine embryos (murine embryos; 0.1 mg/mL, n = 21): 2
fluorescence score (Avidin-AF), murine embryos (murine embryos; 1 mg/mL, n = 19): 1
fluorescence score (Avidin-AF), murine embryos (murine embryos; 2 mg/mL, n = 19): 1
retention of modified group 0 RBCs by the magnet from mixture with unmodified group A RBCs (group 0 RBCs): Retention of the 0 group RBCs by the magnet was demonstrated
Number of beads attached to spermatozoa (spermatozoa; treatment A, incubation time 120 min, 30 min, with cross-linking): 10-15 (with
Number of beads attached to spermatozoa (spermatozoa; treatment A, incubation time 120 min, Immediate): 10-12
Number of beads attached to spermatozoa (spermatozoa; treatment B, incubation time 460 min, 30 min): 8
Number of beads attached to spermatozoa (spermatozoa; treatment C, incubation time 30 min, 30 min): 3
Number of beads attached to spermatozoa (spermatozoa; treatment C, incubation time 30 min, Immediate): 1-3
Number of beads attached to spermatozoa (spermatozoa; treatment D, incubation time 10 min, 30 min): 1
Number of beads attached to spermatozoa (spermatozoa; treatment D, incubation time 10 min, Immediate): 1
